From patent US20090111837A1, “USE OF PDE7 INHIBITORS FOR THE TREATMENT OF NEUROPATHIC PAIN” (priority 2005, published 2009)

Key:
[1] = tested on: CCI-induced static allodynia; test: Static allodynia (von Frey hairs) in the chronic constriction injury (CCI) rat model of neuropathic pain; assay type: in vivo
Description: Male Sprague Dawley rats weighing 150-400 g obtained from Charles River (Manston, Kent, UK.) were housed in groups of 4. All animals were kept under a 12 h light/dark cycle (lights on at 07 h 00 min) with food and water ad libitum. All experiments were carried out by an observer blind to the treatments and in accordance with the Home Office Animals (Scientific Procedures) Act 1986.
The CCI of sciatic nerve was performed as previously described by Bennett and Xie (Bennett G J, Xie Y K. A peripheral mononeuropathy in rat that produces disorders of pain sensation like those seen in man. Pain: 33:87-107, 1988). Animals were anaesthetised with a 2% isofluorane/O2 mixture. The right hind thigh was shaved and swabbed with 1% iodine. Animals were then transferred to a homeothermic blanket for the duration of the procedure and anaesthesia maintained during surgery via a nose cone. The skin was cut along the line of the thighbone. The common sciatic nerve was exposed at the middle of the thigh by blunt dissection through biceps femoris. About 7 mm of nerve was freed proximal to the sciatic trifurcation, by inserting forceps under the nerve and the nerve gently lifted out of the thigh. Suture was pulled under the nerve using forceps and tied in a simple knot until slight resistance was felt and then double knotted. The procedure was repeated until 4 ligatures (4-0 silk) were tied loosely around the nerve with approx 1 mm spacing. The incision was closed in layers.
Animals were habituated to wire bottom test cages prior to the assessment of allodynia. Static allodynia was evaluated by application of von Frey hairs (Stoelting, Wood Dale, Ill., USA.) in ascending order of force (0.6, 1, 1.4, 2, 4, 6, 8, 10, 15 and 26 grams) to the plantar surface of hind paws. Each von Frey hair was applied to the paw for a maximum of 6 sec, or until a withdrawal response occurred. Once a withdrawal response to a von Frey hair was established, the paw was re-tested, starting with the filament below the one that produced a withdrawal, and subsequently with the remaining filaments in descending force sequence until no withdrawal occurred. The highest force of 26 g lifted the paw as well as eliciting a response, thus represented the cut off point. Each animal had both hind paws tested in this manner. The lowest amount of force required to elicit a response was recorded as paw withdrawal threshold (PWT) in grams. Static allodynia was defined as present if animals responded to a stimulus of, or less than, 4 g, which is innocuous in naive rats (Field M J, Bramwell S, Hughes J, Singh L. Detection of static and dynamic components of mechanical allodynia in rat models of neuropathic pain: are they signalled by distinct primary sensory neurones? Pain, 1999; 83:303-11).
All the experiments were conducted in blind. When the experiment was carried out in more then one day and where technically possible, all groups occurred on each day with equal replication. Static allodynia was expressed as median [LQ; UQ] and analysed by Mann Whitney U test. Dynamic allodynia was expressed as arithmetic mean±SEM and analysed by ANOVA.

[2] = tested on: CCI-induced dynamic allodynia; test: Dynamic allodynia (cotton bud stroking) in the chronic constriction injury (CCI) rat model of neuropathic pain; assay type: in vivo
Description: Male Sprague Dawley rats weighing 150-400 g obtained from Charles River (Manston, Kent, UK.) were housed in groups of 4. All animals were kept under a 12 h light/dark cycle (lights on at 07 h 00 min) with food and water ad libitum. All experiments were carried out by an observer blind to the treatments and in accordance with the Home Office Animals (Scientific Procedures) Act 1986. The CCI of sciatic nerve was performed as previously described by Bennett and Xie (Bennett G J, Xie Y K. A peripheral mononeuropathy in rat that produces disorders of pain sensation like those seen in man. Pain: 33:87-107, 1988). Animals were anaesthetised with a 2% isofluorane/O2 mixture. The right hind thigh was shaved and swabbed with 1% iodine. Animals were then transferred to a homeothermic blanket for the duration of the procedure and anaesthesia maintained during surgery via a nose cone. The skin was cut along the line of the thighbone. The common sciatic nerve was exposed at the middle of the thigh by blunt dissection through biceps femoris. About 7 mm of nerve was freed proximal to the sciatic trifurcation, by inserting forceps under the nerve and the nerve gently lifted out of the thigh. Suture was pulled under the nerve using forceps and tied in a simple knot until slight resistance was felt and then double knotted. The procedure was repeated until 4 ligatures (4-0 silk) were tied loosely around the nerve with approx 1 mm spacing. The incision was closed in layers. Dynamic allodynia was assessed by lightly stroking the plantar surface of the hind paw with a cotton bud. To avoid recording general motor activity, care was taken to perform this procedure in fully habituated rats that were not active. At least two measurements were taken at each time point, the mean of which represented the paw withdrawal latency (PWL). […] A pain withdrawal response was often accompanied with repeated flinching or licking of the paw. Dynamic allodynia was considered to be present if animals responded to the cotton stimulus within 8 sec of commencing stroking (Field et al, 1999). All the experiments were conducted in blind. When the experiment was carried out in more then one day and where technically possible, all groups occurred on each day with equal replication. Static allodynia was expressed as median [LQ; UQ] and analysed by Mann Whitney U test. Dynamic allodynia was expressed as arithmetic mean±SEM and analysed by ANOVA.

[3] = CCI rats, PO, 0.3, 1 and 3 mg/kg
[4] = CCI rats, PO, post administration
[5] = CCI rats, oral (PO), doses 0.3, 1 and 3 mg/kg
[6] = highest dose (3 mg/kg PO) vs gabapentin 100 mg/kg PO
[7] = highest dose (3 mg/kg PO), post dose, p<0.01 vs vehicle

O=C(O)CCCOc1ccc(Cl)c2c1C1(CCCCC1)NC(=O)N2 [5′-(3-(Carboxy)propoxy)-8′-chlorospiro[cyclohexane-1,4′-quinazolin]-2′(1′H)-one]
effect on CCI-induced static allodynia [1, 3]: reversed the maintenance of CCI-induced static and dynamic allodynia in a dose dependent manner
time of peak effect, static allodynia [1, 4]: 1 h
MED for static allodynia [1, 5]: 1 mg/kg
static allodynia reversal, curve profile versus gabapentin [1, 6]: comparable to gabapentin
onset of anti-allodynic effect, static allodynia [1, 7]: 30 min
effect on CCI-induced dynamic allodynia [2, 3]: reversed the maintenance of CCI-induced static and dynamic allodynia in a dose dependent manner
time of peak effect, dynamic allodynia [2, 4]: 1 h
MED for dynamic allodynia [2, 5]: 3 mg/kg
dynamic allodynia effect versus gabapentin [2, 6]: less potent but significantly different from vehicle treated CCI rats
dynamic allodynia, paw withdrawal latency (mean±SEM) ([2]; highest dose (3 mg/kg PO), 1 hrs post administration, vehicle treated CCI rats 3.7±0.7, latency recorded in sec, in s): 10.2±1.4
onset of anti-allodynic effect, dynamic allodynia [2, 7]: 30 min
